pIC50: −log10 of the molar value. “And” between values parts separate entries of the source, which are not always exact repeats. Equal values may be shown once. Where a name gives a salt, the structure may show the parent alone. Read-outs that look alike come from different tables or passages of the source.
Legend:
SUDHL5 [1] = test: Induction of caspase-3/7 activity in SUDHL5 cells (Assay 4); format: cell-based; conditions: SUDHL5, 3 hours treatment, Caspase-Glo 3/7, median, read-out: Caspase SUDHL5 [M] (median)
Procedure: (§1) Induction of Caspase-3/7 Activity Upon Treatment of Cells with Selected Compounds
(§2) The BH3-domain of MCL-1 sequesters pro-apoptotic proteins, thereby inhibiting apoptosis. In contrast, MCL-1 inhibitors are expected to antagonize this effect leading to an increase in apoptosis, which can be determined by measuring the activity of caspase-3/7.
(§3) The activity of caspase-3/7 was determined in DLBCL (Diffuse large B-cell lymphoma) cell lines (SUDHL5 and SUDHL10) upon treatment with different compounds, using the Caspase-Glo® 3/7 reagent from Promega (G8092).
(§4) As a control, medium without cells was also added to the plate. Cells were incubated in a humidified incubator at 37° C. overnight.
(§5) Rim wells were excluded. The cells were incubated for 3 hours in a humidified incubator at 37° C. After this incubation, 30 μl of Caspase-Glo® 3/7 reagent (Promega G8092) was added to each well using the Multidrop Combi Reagent Dispenser, followed by 1 hour incubation at 37° C. Finally, luminescence was read at 0.1 ms, with a gain of 3000 using the PHERAstar FS microplate reader (BMG Labtech).
(§6) For the evaluation of the results, the background measured with “medium-only” was subtracted from all other values. Then, the values were normalized to DMSO-only treated cells (every value was divided by the mean of the DMSO control).

SUDHL5 [2] = test: Induction of cytotoxicity in SUDHL5 cells, CellTiter-Glo (Assay 6); format: cell-based; conditions: SUDHL5, 5 hours incubation, median, read-out: Cytotox SUDHL5 [M] (median)
Procedure: (§7) Induction of Cytotoxicity Upon Treatment of Cells with Selected Compounds
(§8) In principle, compounds that induce apoptosis will concomitantly induce cell cytotoxicity. Therefore, cytotoxicity assays were run in parallel in SUDHL5 and SUDHL10 cells.
(§9) As a control, medium without cells was also added to the plate. Cells were incubated in a humidified incubator at 37° C. overnight. […] Rim wells were excluded. The cells were incubated for 5 hours in a humidified incubator at 37° C. After this incubation, 30 μl of CellTiter-Glo® Luminescent Cell Viability reagent (Promega, G7573) was added to each well using the Multidrop Combi Reagent Dispenser, followed by 15 minutes incubation on a shaker at room temperature. Finally, luminescence was read at 0.1 ms, with a gain of 3000 using the PHERAstar FS microplate reader (BMG Labtech).

A2780 = test: Anti-proliferative effect in A2780 cells, CellTiter-Glo (Assay 7); format: cell-based; conditions: A2780, 72 hours incubation, CellTiter-Glo, several values per example, read-out: Antiproli A2780
Procedure: (§10) Assessment of the Anti-Proliferative Effect of Compounds in Different Cell Lines
(§11) The impact of compounds on the proliferation of different cell lines was assessed using the CellTiter-Glo® Luminescent Cell Viability reagent from Promega (G7573).
(§12) In parallel, cells were plated in a reference (day 0) plate for time zero determination. Cells were incubated in a humidified incubator at 37° C. overnight.
(§13) Rim wells were excluded. The cells were incubated for 72 hours in a humidified incubator at 37° C. The day 0 plate was measured by adding 30 μL/well of CTG solution (CellTiter-Glo® Luminescent Cell Viability reagent, Promega G7573) to time zero wells in the reference plate followed by a 10 minutes incubation and luminescence reading at 0.1 ms. using the PHERAstar FS microplate reader (BMG Labtech).
(§14) After 72 hours incubation, the treated plates were measured in the same way as the day 0 plate mentioned above. The Bella DRC Master Sheet was used to calculate IC50s, with CI=day 0 values and C0=DMSO control values.

MV-4-11 = test: Anti-proliferative effect in MV-4-11 cells, CellTiter-Glo (Assay 7); format: cell-based; conditions: MV-4-11, 72 hours incubation, CellTiter-Glo, several values per example, read-out: Antiproli MV-4-11
Procedure: as §10, §11, §12, §13, §14

SUDHL10 [3] = test: Induction of cytotoxicity in SUDHL10 cells, CellTiter-Glo (Assay 6); format: cell-based; conditions: SUDHL10, 5 hours incubation, median, read-out: Cytotox SUDHL10 [M] (median)
Procedure: as §7, §8, §9

SUDHL5 [4] = test: Anti-proliferative effect in SUDHL5 cells, CellTiter-Glo (Assay 7); format: cell-based; conditions: SUDHL5, 72 hours incubation, CellTiter-Glo, median, read-out: Antiproli SUDHL5 [M] (median)
Procedure: as §10, §11, §12, §13, §14

MCL-1 = MCL-1 (Homo sapiens, UniProt Q07820, K194A/K197A/R201A); test: Protein-protein interaction assay MCL-1/Noxa BH3 peptide, TR-FRET (MCL-1 assay, Assay 1); format: binding; conditions: MBP-MCL-1 / Noxa BH3 peptide
MCL-1, sequence (Q07820 173-321 K194A/K197A/R201A, looked up): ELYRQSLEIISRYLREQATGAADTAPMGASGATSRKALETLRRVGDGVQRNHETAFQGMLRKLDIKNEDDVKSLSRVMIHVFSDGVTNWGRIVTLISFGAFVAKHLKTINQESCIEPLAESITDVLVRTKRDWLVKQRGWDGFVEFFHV
Procedure: The dose-dependent inhibition by the compounds described in this invention of the interaction between MCL-1 and the BH3 domain of Noxa (both human) was determined using a steady state binding competition assay with time-resolved fluorescence energy transfer (TR-FRET) readout. For that purpose MCL-1 (amino acids 173-321, N-terminal fused to Maltose Binding Protein (MBP), SEQ ID 1) and a synthetic Noxa BH3-derived peptide of sequence Biotin-PEG2-PEG2-PAELEVE-Nva-[…]-amide (SEQ ID 2) served as protein receptor and tracer ligand respectively. The MBP-MCL-1 was purchased from Beryllium (Bedford, Mass., USA). The expression and purification of this protein construct has been described elsewhere (DOI:10.1371/journal.pone.0125010). The Noxa BH3-derived peptide can be obtained from e.g. Biosyntan (Berlin, Germany).
For that, 100-fold concentrated DMSO solutions were prepared by serial dilutions (1:3.4) of a 2 mM stock solution in a clear, 384-well microtiter plate (Greiner Bio-One, Frickenhausen, Germany). From there, 50 nl were transferred in a dark test plate (Greiner Bio-One, Frickenhausen, Germany). The assay was initiated by addition of 2 μl of a 2,5-fold concentrated MBP-MCL-1 solution (usually for a 1 nM end concentration in 5 μl reaction volume) in aqueous assay buffer [50 mM Tris/HCl pH 7, 100 mM sodium chloride (NaCl), 50 mM potassium fluoride (KF), 0.005% Tween-20, 2 mM DTT, 0.1% bovine gamma globulin (BGG)] to the compounds in the assay plate. This was followed by a 10-minute incubation step at 22° C. for pre-equilibration of the putative complex between MBP-MCL-1 and the compounds.
The mixture was incubated in the dark for one hour at 22° C. and then overnight at 4° C. The formation of MCL-1/Noxa complexes was determined by measuring the resonance energy transfer of the anti-MBP-Eu-cryptate antibody to the streptavidin-XL665 present in the reaction.
The resulting data (ratio) were normalized, taking 0% inhibition as the mean value of control measurements (usually 32 data points) where all reagents were included. In this case 50 nl DMSO were used instead of compounds. […] IC50 values were determined by regression analysis based on a 4 parameter equation (minimum, maximum, IC50, Hill; Y=Max+(Min−Max)/(1+(X/IC50)^Hill) using the Screener Software (Genedata).

SUDHL10 [5] = test: Induction of caspase-3/7 activity in SUDHL10 cells (Assay 4); format: cell-based; conditions: SUDHL10, 3 hours treatment, Caspase-Glo 3/7, median, read-out: Caspase SUDHL10 [M] (median)
Procedure: as §1, §2, §3, §4, §5, §6

pIC50 (A2780; Acetate Salt) | Compound | EC50 (SUDHL5 [1]; Homo sapiens, SU-DHL-5, 3 h) | IC50 (SUDHL5 [2]; Homo sapiens, SU-DHL-5, 5 h) | pIC50 (A2780; Homo sapiens, A2780, 72 h) | pIC50 (MV-4-11; Homo sapiens, MV4-11, 72 h) | IC50 (SUDHL10 [3]; Homo sapiens, SU-DHL10, 5 h) | IC50 (SUDHL5 [4]; Homo sapiens, SU-DHL-5, 72 h) | IC50 (MCL-1; MCL-1 Assay [M] (median)) | EC50 (SUDHL10 [5]; Homo sapiens, SU-DHL10, 3 h) | pIC50 (A2780) | pIC50 (MV-4-11) | EC50 (SUDHL5 [1]) | IC50 (SUDHL10 [3]) | IC50 (SUDHL5 [4]) | IC50 (MCL-1; median, read-out: MCL-1 Assay [M] (median)) | EC50 (SUDHL10 [5]) | IC50 (SUDHL5 [2])
 | Cc1c2c(nn1C)CN(C)Cc1ccccc1Cn1c(C(=O)O)c(CCCOc3cccc4ccccc34)c3cccc-2c31 (racemic) [Example 14, (rac)-4,5,8-Trimethyl-17-[3-(naphthalen-1-yloxy)propyl]-7,8,9,14-tetrahydro-5H-indolo[1,7-bc]pyrazolo[4,3-e][2,8]benzodiazacycloundecine-16-carboxylic Acid] | 2.7e-06 M | 3e-06 M | 4.76 | 5.19 | 7e-06 M | 3.4e-06 M | 5.2e-09 M | 7.6e-06 M |  |  |  |  |  |  |  | 
 | Cc1c2c(nn1C)CNCc1ccccc1Cn1c(C(=O)O)c(CCCOc3cccc4ccccc34)c3cccc-2c31 (racemic) [Example 11, (rac)-4,5-Dimethyl-17-[3-(naphthalen-1-yloxy)propyl]-7,8,9,14-tetrahydro-5H-indolo[1,7-bc]pyrazolo[4,3-e][2,8]benzodiazacycloundecine-16-carboxylic Acid] | 5.6e-06 M | 5.6e-06 M | 4.93 | 5.12 | 1.5e-05 M | 7.2e-06 M |  | 1.6e-05 M | 4.91 | 5.13 |  |  |  |  |  | 
5.24 | Cc1c2c(nn1C)CN(S(=O)(=O)c1ccc(N3CCOCC3)nc1)Cc1ccccc1Cn1c(C(=O)O)c(CCCOc3cccc4ccccc34)c3cccc-2c31 (racemic) [Example 17, (rac)-4,5-Dimethyl-8-{[6-(morpholin-4-yl)pyridin-3-yl]sulfonyl}-17-[3-(naphthalen-1-yloxy)propyl]-7,8,9,14-tetrahydro-5H-indolo[1,7-bc]pyrazolo[4,3-e][2,8]benzodiazacycloundecine-16-carboxylic Acid Acetate Salt] | 3e-06 M | 3.1e-06 M | 5.31 |  | 1.4e-05 M | 3.9e-06 M | 3.4e-08 M | 8.5e-06 M |  |  |  |  |  |  |  | 
 | Cc1c2c(nn1C)COCc1ncccc1Cn1c(C(=O)O)c(CCCOc3cccc4ccccc34)c3cccc-2c31 [Example 07] |  |  |  |  |  |  |  |  | 4.53 and < 4.48 | 5.29 and 5.26 |  |  |  |  |  | 
 | Cc1c2c(nn1C)COCc1ccccc1Cn1c(C(=O)O)c(CCCOc3cccc4ccccc34)c3ccc(F)c-2c31 (racemic) [Example 67, (rac)-15-Fluoro-13,14-dimethyl-1-(3-(naphthalen-1-yloxy)propyl)-4,9,11,13-tetrahydrobenzo[3,4]pyrazolo[4′,3′:9,10][1,6]oxaazacycloundecino[8,7,6-hi]indole-2-carboxylic Acid] | 2.2e-06 M | 1.8e-06 M | 4.69 | 5.51 | 4.9e-06 M | 2.4e-06 M |  | 5.9e-06 M |  |  |  |  |  |  |  | 
 | Cc1c2c(nn1C)COCc1cccnc1Cn1c(C(=O)O)c(CCCOc3cccc4ccccc34)c3cccc-2c31 [Example 04] |  |  |  |  |  |  |  |  | 4.51 and < 4.48 |  |  |  |  |  |  | 
 | CCc1c2c(nn1C)COCc1ccccc1Cn1c(C(=O)O)c(CCCOc3cccc4ccccc34)c3ccc(F)c-2c31 (racemic) [Example 70, (rac)-14-Ethyl-15-fluoro-13-methyl-1-(3-(naphthalen-1-yloxy)propyl)-4,9,11,13-tetrahydrobenzo[3,4]pyrazolo[4′,3′:9,10][1]oxa[6]azacycloundecino[8,7,6-hi]indole-2-carboxylic Acid] |  |  |  |  |  |  |  |  | 4.64 and 4.65 | 5.62 and 5.64 | 1.6e-06 M | 6.1e-06 M | 2.2e-06 M | 2.1e-09 M | 8.6e-06 M | 
 | Cc1c2c(nn1C)COCc1ncccc1Cn1c(C(=O)O)c(CCCOc3cccc4ccccc34)c3cccc-2c31 (single isomer, unassigned; enantiomer 2) [Example 9, 4,5-Dimethyl-17-[3-(naphthalen-1-yloxy)propyl]-5,7,9,14-tetrahydropyrazolo[4′,3′:9,10]-pyrido[2′,3′:3,4][1,6]oxazacycloundecino[8,7,6-hi]indole-16-carboxylic acid-N-ethylethanamine Salt (Enantiomer 2)] |  |  |  |  |  |  | 3.2e-08 M |  |  |  | > 3.3e-05 M | > 3.3e-05 M | 2e-05 M |  | > 3.3e-05 M | > 3.3e-05 M
 | Cc1c2c(nn1C)COCc1ccccc1Cn1c(C(=O)O)c(CCCOc3cccc4ccccc34)c3cccc-2c31 (racemic) [Example 1, (rac)-4,5-Dimethyl-17-[3-(naphthalen-1-yloxy)propyl]-5,7,9,14-tetrahydroindolo[7,1-fg]pyrazolo[3,4-d][2,8]benzoxazacycloundecine-16-carboxylic Acid] | 1e-05 M | 1.1e-05 M |  |  | > 1.6e-05 M | 9e-06 M | 1.4e-08 M | > 3.3e-05 M |  |  |  |  |  |  |  | 
